US9403808B2, “Pyrazine derivatives” (Hoffmann-La Roche Inc., priority 2011, dated 2016)
Like-named read-outs stand apart in the source and are kept apart here.

What was measured:
human CB2 receptors = human CB2 receptors (Homo sapiens (Human), UniProt P34972); experiment: functional cAMP assay, CB2; type: cell-based
Experimental: (§1) CHO cells expressing human CB1 or CB2 receptors are seeded 17-24 hours prior to the experiment 50.000 cells per well in a black 96 well plate with flat clear bottom (Corning Costar #3904) in DMEM (Invitrogen No. 31331), 1×HT supplement, with 10% fetal calf serum and incubated at 5% CO2 and 37° C. in a humidified incubator. The growth medium was exchanged with Krebs Ringer Bicarbonate buffer with 1 mM IBMX and incubated at 30° C. for 30 min. Compounds were added to a final assay volume of 100 μl and incubated for 30 min at 30° C. Using the cAMP-Nano-TRF detection kit the assay (Roche Diagnostics) was stopped by the addition of 50 μl lysis reagent (Tris, NaCl, 1.5% Triton X100, 2.5% NP40, 10% NaN3) and 50 μl detection solutions (20 μM mAb Alexa700-cAMP 1:1, and 48 μM Ruthenium-2-AHA-cAMP) and shaken for 2 h at room temperature. The time-resolved energy transfer is measured by a TRF reader (Evotec Technologies GmbH), equipped with a ND:YAG laser as excitation source. The plate is measured twice with the excitation at 355 nm and at the emission with a delay of 100 ns and a gate of 100 ns, total exposure time 10s at 730 (bandwidth 30 nm) or 645 nm (bandwidth 75 nm), respectively. The FRET signal is calculated as follows: FRET=T730-Alexa730-P(T645-B645) with P=Ru730-B730/Ru645-B645, where T730 is the test well measured at […], T645 is the test well measured at 645 nm, B730 and B645 are the buffer controls at 730 nm and 645 nm, respectively. cAMP content is determined from the function of a standard curve spanning from 10 μM to 0.13 nM cAMP.
(§2) EC50 values were determined using Activity Base analysis (ID Business Solution, Limited). The EC50 values for a wide range of cannabinoid agonists generated from this assay were in agreement with the values published in the scientific literature.

human CB1 receptors = human CB1 receptors (Homo sapiens (Human), UniProt P21554); experiment: functional cAMP assay, CB1; type: cell-based; details: functional cAMP assay, CHO cells expressing human CB1; read-out: human CB1 EC50
Experimental: as §1, §2

[1] = functional cAMP assay, CHO cells expressing human CB2, read-out: human CB2 EC50

human CB2 receptors, sequence (P34972 whole entry): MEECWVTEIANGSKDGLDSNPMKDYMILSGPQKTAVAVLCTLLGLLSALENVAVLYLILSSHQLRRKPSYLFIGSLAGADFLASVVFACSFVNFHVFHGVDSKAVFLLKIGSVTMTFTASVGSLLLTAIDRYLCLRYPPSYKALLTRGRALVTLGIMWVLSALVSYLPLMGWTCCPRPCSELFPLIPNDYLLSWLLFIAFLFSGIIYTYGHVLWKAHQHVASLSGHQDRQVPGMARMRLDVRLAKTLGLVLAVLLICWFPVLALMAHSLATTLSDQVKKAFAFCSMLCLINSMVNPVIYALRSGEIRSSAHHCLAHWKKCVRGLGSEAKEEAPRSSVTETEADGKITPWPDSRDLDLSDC
human CB1 receptors, sequence (P21554 whole entry): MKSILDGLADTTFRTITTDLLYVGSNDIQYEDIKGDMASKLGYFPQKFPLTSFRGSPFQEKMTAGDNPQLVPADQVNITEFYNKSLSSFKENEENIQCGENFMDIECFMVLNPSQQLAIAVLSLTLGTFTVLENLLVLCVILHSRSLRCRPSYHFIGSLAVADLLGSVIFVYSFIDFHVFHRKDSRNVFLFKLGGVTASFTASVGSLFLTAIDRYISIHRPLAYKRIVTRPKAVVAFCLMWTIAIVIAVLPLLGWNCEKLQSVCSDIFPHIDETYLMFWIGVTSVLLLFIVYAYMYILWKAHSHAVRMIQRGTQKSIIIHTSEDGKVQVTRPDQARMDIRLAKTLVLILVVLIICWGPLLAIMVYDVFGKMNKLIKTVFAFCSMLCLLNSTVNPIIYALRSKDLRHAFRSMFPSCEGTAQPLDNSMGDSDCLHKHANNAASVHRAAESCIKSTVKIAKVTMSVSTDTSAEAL

| Structure (SMILES) | EC50 (human CB2 receptors; [1]) [nM] | EC50 (human CB1 receptors) [nM] | EC50 (human CB2 receptors) [nM] |
| --- | --- | --- | --- |
| CCC(CC)(NC(=O)c1cnc(C2CC2)c(OCC2CC2)n1)C(=O)NC [Example 53, 5-Cyclopropyl-6-cyclopropylmethoxy-pyrazine-2-carboxylic acid (1-ethyl-1-methylcarbamoyl-propyl)-amide] | 15.1 | > 10000 |  |
| O=C(NC(CO)C1CC1)c1cnc(N2CC(F)(F)C2)c(OCC2CC2)n1 (stereo not drawn) [Example 21, 6-Cyclopropylmethoxy-5-(3,3-difluoro-azetidin-1-yl)-pyrazine-2-carboxylic acid (1-cyclopropyl-2-hydroxy-ethyl)-amide] | 61.3 | > 10000 |  |
| CC(C)[C@](C)(CO)NC(=O)c1cnc(C2CC2)c(OCC2CC2)n1 [Example 51, 5-Cyclopropyl-6-cyclopropylmethoxy-pyrazine-2-carboxylic acid ((R)-1-hydroxymethyl-1,2-dimethyl-propyl)-amide] | 137 | > 10000 |  |
| O=C(NC1(CO)CCC1)c1cnc(C2CC2)c(OCC2CC2)n1 [Example 11, 5-Cyclopropyl-6-cyclopropylmethoxy-pyrazine-2-carboxylic acid (1-hydroxymethyl-cyclobutyl)-amide] | 124 | 3320 |  |
| Cc1nc(C2(NC(=O)c3cnc(N4CC(F)(F)C4)c(OCC4CC4)n3)CCC2)no1 [Example 9, 6-Cyclopropylmethoxy-5-(3,3-difluoro-azetidin-1-yl)-pyrazine-2-carboxylic acid [1-(5-methyl-[1,2,4]oxadiazol-3-yl)-cyclobutyl]-amide] | 87.9 | 1290 |  |
| COC(=O)C(C)(NC(=O)c1cnc(N2CC(F)(F)C2)c(OCC2CC2)n1)C1CC1 (stereo not drawn) [Example 80, 2-Cyclopropyl-2-{[6-cyclopropylmethoxy-5-(3,3-difluoro-azetidin-1-yl)-pyrazine-2-carbonyl]-amino}-propionic acid methyl ester] | 0.7 | > 10000 |  |
| CC(C)C[C@H](NC(=O)c1cnc(C2CC2)c(OCC2CC2)n1)C(N)=O [Example 29, 5-Cyclopropyl-6-cyclopropylmethoxy-pyrazine-2-carboxylic acid ((S)-1-carbamoyl-3-methyl-butyl)-amide] | 4.1 | 1570 |  |
| Cc1nc([C@@H](C)NC(=O)c2cnc(N3CC(F)(F)C3)c(OCC3CC3)n2)no1 [Example 56, 6-Cyclopropylmethoxy-5-(3,3-difluoro-azetidin-1-yl)-pyrazine-2-carboxylic acid [(R)-1-(5-methyl-[1,2,4]oxadiazol-3-yl)-ethyl]amide] | 72.5 | > 10000 |  |
| NC(=O)[C@@H]1CCCC[C@@H]1NC(=O)c1cnc(C2CC2)c(OCC2CC2)n1 [Example 82] | 257 |  |  |
| CC(C)[C@H](CC(N)=O)NC(=O)c1cnc(N2CC(F)(F)C2)c(OCC2CC2)n1 [Example 77, 6-Cyclopropylmethoxy-5-(3,3-difluoro-azetidin-1-yl)-pyrazine-2-carboxylic acid ((S)-1-carbamoylmethyl-2-methyl-propyl)-amide] | 6.5 |  |  |
| COC(=O)C1(NC(=O)c2cnc(N3CC(F)(F)C3)c(OCC3CC3)n2)CCC1 [Example 73, 1-{[6-Cyclopropylmethoxy-5-(3,3-difluoro-azetidin-1-yl)-pyrazine-2-carbonyl]-amino}-cyclobutanecarboxylic acid methyl ester] | 20.5 |  |  |
| CC(C)(CCCO)NC(=O)c1cnc(C2CC2)c(OCC2CC2)n1 [Example 69, 5-Cyclopropyl-6-cyclopropylmethoxy-pyrazine-2-carboxylic acid (4-hydroxy-1,1-dimethyl-butyl)-amide] | 47.4 |  |  |
| Cc1oc(-c2ccccc2)nc1CC(C)(C)NC(=O)c1cnc(C2CC2)c(OCC2CC2)n1 [Example 71, 5-Cyclopropyl-6-cyclopropylmethoxy-pyrazine-2-carboxylic acid [1,1-dimethyl-2-(5-methyl-2-phenyl-oxazol-4-yl)-ethyl]-amide] | 201 |  |  |
| NC(=O)[C@@H](NC(=O)c1cnc(C2CC2)c(OCC2CC2)n1)c1ccc(F)cc1 [Example 63, 5-Cyclopropyl-6-cyclopropylmethoxy-pyrazine-2-carboxylic acid [(S)-carbamoyl-(4-fluoro-phenyl)-methyl]-amide] | 96.6 |  |  |
| Cc1nc([C@H](CC2CC2)NC(=O)c2cnc(C3CC3)c(OCC3CC3)n2)no1 [Example 65, 5-Cyclopropyl-6-cyclopropylmethoxy-pyrazine-2-carboxylic acid [(S)-2-cyclopropyl-1-(5-methyl-[1,2,4]oxadiazol-3-yl)-ethyl]-amide] | 20.7 |  |  |
| NC(=O)[C@H]1CCCC[C@H]1NC(=O)c1cnc(N2CC(F)(F)C2)c(OCC2CC2)n1 (single isomer, unassigned) [Example 81] |  |  | 31.2 |
| Cc1nc([C@@](C)(CC2CC2)NC(=O)c2cnc(N3CC(F)(F)C3)c(OCC3CC3)n2)no1 [Example 79, (−)-6-Cyclopropylmethoxy-5-(3,3-difluoro-azetidin-1-yl)-pyrazine-2-carboxylic acid [2-cyclopropyl-1-methyl-1-(5-methyl-[1,2,4]oxadiazol-3-yl)-ethyl]-amide] | 4 |  |  |
| CC(CC(C)(C)NC(=O)c1cnc(C2CC2)c(OCC2CC2)n1)c1ccncc1 (stereo not drawn) [Example 72, 5-Cyclopropyl-6-cyclopropylmethoxy-pyrazine-2-carboxylic acid (1,1-dimethyl-3-pyridin-4-yl-butyl)-amide] | 92.6 |  |  |
| NC(=O)[C@@H](NC(=O)c1cnc(N2CC(F)(F)C2)c(OCC2CC2)n1)c1ccc(Cl)cc1 [Example 68, 6-Cyclopropylmethoxy-5-(3,3-difluoro-azetidin-1-yl)-pyrazine-2-carboxylic acid [(S)-carbamoyl-(4-chloro-phenyl)-methyl]-amide] | 116 |  |  |
| CC(C)C[C@H](NC(=O)c1cnc(N2CC(F)(F)C2)c(OCC2CC2)n1)C(=O)NCC(F)(F)F [Example 67, 6-Cyclopropylmethoxy-5-(3,3-difluoro-azetidin-1-yl)-pyrazine-2-carboxylic acid [(S)-3-methyl-1-(2,2,2-trifluoro-ethylcarbamoyl)-butyl]-amide] | 57.6 |  |  |
| CC(C)[C@H](CC(N)=O)NC(=O)c1cnc(C2CC2)c(OCC2CC2)n1 [Example 76, 5-Cyclopropyl-6-cyclopropylmethoxy-pyrazine-2-carboxylic acid ((S)-1-carbamoylmethyl-2-methyl-propyl)-amide] | 16.3 |  |  |
| NC(=O)[C@H]1CCCC[C@H]1NC(=O)c1cnc(C2CC2)c(OCC2CC2)n1 [Example 83] | 44.4 |  |  |
| COC(=O)[C@H](CC(C)C)NC(=O)c1cnc(N2CC(F)(F)C2)c(OCC2CC2)n1 [Example 66, (S)-2-{[6-Cyclopropylmethoxy-5-(3,3-difluoro-azetidin-1-yl)-pyrazine-2-carbonyl]-amino}-4-methyl-pentanoic acid methyl ester] | 0.4 |  |  |
| NC(=O)[C@@H](NC(=O)c1cnc(N2CC(F)(F)C2)c(OCC2CC2)n1)c1ccc(F)cc1 [Example 64, 6-Cyclopropylmethoxy-5-(3,3-difluoro-azetidin-1-yl)-pyrazine-2-carboxylic acid [(S)-carbamoyl-(4-fluoro-phenyl)-methyl]-amide] | 31.2 |  |  |
| Cc1nc([C@](C)(CC2CC2)NC(=O)c2cnc(N3CC(F)(F)C3)c(OCC3CC3)n2)no1 [Example 78, (+)-6-Cyclopropylmethoxy-5-(3,3-difluoro-azetidin-1-yl)-pyrazine-2-carboxylic acid [2-cyclopropyl-1-methyl-1-(5-methyl-[1,2,4]oxadiazol-3-yl)-ethyl]-amide] | 17.4 |  |  |
